This test can be described thus: Inhibition of HCV NS3 serine protease. Further details: species or system Hepacivirus hominis.
For `O=C(OC[C@H]1O[C@@H](O)[C@H](O)[C@@H](OC(=O)c2cc(O)c(O)c(O)c2)[C@@H]1O)c1cc(O)c(O)c(O)c1`, 950 µM corresponded to half-maximal inhibition (IC50).

`O=C(O[C@@H]1O[C@H](CO)[C@@H](OC(=O)c2cc(O)c(O)c(O)c2)[C@H](OC(=O)c2cc(O)c(O)c(O)c2)[C@H]1O)c1cc(O)c(O)c(O)c1` displayed an IC50 of 1 µM. Compared with the last molecule, the IC50 is about 950-fold lower.

`O=C(OC[C@H]1O[C@@H](OC(=O)c2cc(O)c(O)c(O)c2)[C@H](O)[C@@H](OC(=O)c2cc(O)c(O)c(O)c2)[C@@H]1O)c1cc(O)c(O)c(O)c1` displayed an IC50 of 10.1 µM. This IC50 lies about 10-fold higher than the previous one.

In turn, `O=C(Oc1cc(C(=O)O[C@@H]2O[C@H](CO)[C@@H](OC(=O)c3cc(O)c(O)c(O)c3)[C@H](OC(=O)c3cc(O)c(O)c(O)c3)[C@H]2OC(=O)c2cc(O)c(O)c(O)c2)cc(O)c1O)c1cc(O)c(O)c(O)c1` returned an IC50 of 0.68 µM.

As to `O=C(Oc1c(O)cc(C(=O)O[C@H]2[C@H](OC(=O)c3cc(O)c(O)c(O)c3)O[C@H](CO)[C@@H](OC(=O)c3cc(O)c(O)c(O)c3)[C@@H]2OC(=O)c2cc(O)c(O)c(O)c2)cc1O)c1cc(O)c(O)c(O)c1`, the IC50 is 0.66 µM. This IC50 and that of the molecule before are within 1.5-fold of each other.

For orientation: IC50 means the concentration needed to halve the response being measured. A higher IC50 goes with lower potency.

These data come from ChEMBL document CHEMBL1144525, “Prediction of binding for a kind of non-peptic HCV NS3 serine protease inhibitors from plants by molecular docking and MM-PBSA method” (Bioorg Med Chem, 2007).
